In US20220073910A1, “A Cross-Linking Approach to Map Small Molecule-RNA Binding Sites in Cells” (priority 2019, published 2022):
Starred links: 1 amine or outer side, 2 acyl side, 3 side chain; linkers in the order of their positions; H or OH if unused. Non-standard residues stand in square brackets, D forms with d. Residues, ends and D or L forms follow the SMILES beside them. *: point of attachment. Biotinyl(3aR,4R,6aS) = O=C1N[C@@H]2[C@@H](CS[C@@H]2CCCCC(=O)*)N1; N(2-Aminoethyl)Gly = O=C(CN(CCN[*:3])[*:1])[*:2]; Chlorambucil = O=C(CCCc1ccc(N(CCCl)CCCl)cc1)*; Gly(N-propargyl) = C#CCNCC(=O)O; NPrGly = CCCNCC(=O)O

Key:
[1] = system: pri-miR-96 (Drosha processing); experiment: RT-qPCR of mature miR-96 and pri-miR-96 levels in MDA-MB-231 TNBC cells; assay type: cell-based; conditions: MDA-MB-231 cells, 50 nM
Protocol: (§1) A—Effects of compounds 1 and 2 (50 nM) on mature miR-96 and pri-miR-96 levels. B—Effects of compounds 1 and 2 (50 nM) on FOXO1 protein expression. C— Profiling of miRNAs predicted to target FOXO1 mRNA by TargetScan in compound 2-treated MDA-MB-231 cells. D—Volcano plot profiling the effect of compound 2 on all miRNAs that are expressed in MDA-MB-231 cells (blue circles are miRNAs predicted to target FOXO1 mRNA by TargetScan). E—Effects of compounds 1, 2, and 3 on Caspase 3/7 activity, indicative of apoptosis, in MDA-MB-231 TNBC cells. F—Effects of compounds 1, 2, and 3 on Caspase 3/7 activity, indicative of apoptosis, in MCF-10A normal breast epithelial cells.

FOXO1 protein = FOXO1 protein expression in MDA-MB-231 cells; assay type: cell-based; conditions: 50 nM
Protocol: as §1
(§2) Since miR-96 suppresses apoptosis in cancer cells by repressing the translation of Forkhead box 01 (FOXO1) transcription factor,^15 the effects of 1, 2, and 3 on FOXO1 protein levels were measured in MDA-MB-231 cells. […] To validate that the increase in FOXO1 levels was mediated by inhibition of miR-96, we studied the effects of 1 and 2 on all 15 miRNAs predicted to target the FOXO1 3′ untranslated region (UTR) by TargetScan (FIG. 3C). […] To further probe 2's selectivity for pri-miR-96, we performed an unbiased profiling experiment on 373 miRNAs expressed in MDA-MB-231 TNBC cells (based on Qiagen miRNA Human miRbase profiler HC).

[2] = system: miRNAs predicted to target FOXO1 mRNA; experiment: Profiling of 15 miRNAs predicted by TargetScan to target FOXO1 3' UTR; assay type: cell-based; conditions: MDA-MB-231 cells
Protocol: as §1, §2

[3] = system: 373 miRNAs expressed in MDA-MB-231 TNBC cells; experiment: Unbiased profiling of 373 miRNAs expressed in MDA-MB-231 TNBC cells; assay type: cell-based; conditions: Qiagen miRNA Human miRbase profiler HC
Protocol: as §1, §2

MDA-MB-231 TNBC cells = experiment: Caspase 3/7 activity (apoptosis) in MDA-MB-231 TNBC cells; assay type: cell-based; conditions: MDA-MB-231 cells
Protocol: as §1
(§3) We next studied the ability of 1 and 2 to trigger apoptosis, i.e., reverse phenotype, in MDA-MB-231 by measuring Caspase activity. […] Compound 3 had no effect on Caspase activity, as expected. […] Thus, the covalent compounds show relative selectivity for cancerous over healthy breast cells.

MCF-10A cells = experiment: Caspase 3/7 activity (apoptosis) in MCF-10A normal breast epithelial cells; assay type: cell-based; conditions: healthy breast epithelial MCF-10A cells
Protocol: as §1, §3

pri-miR-96 [4] = experiment: Chem-CLIP-Map-Seq binding site mapping within pri-miR-96 in MDA-MB-231 TNBC cells; assay type: cell-based; conditions: MDA-MB-231 cells, 1000 nM
Description: A—Scheme of amplification approach to identify small molecule binding site in pri-miR-96. B— In cellulis mapping of the binding site for compound 2 within pri-miR-96 in MDA-MB-231 TNBC cells. Percentages indicate the number of sequences observed terminating at the respective nucleotide adjacent to the percentage.
Given the enrichment of pri-miR-96 in the pulled down fraction and 2's pro-apoptotic properties, we mapped 2's binding site within pri-miR-96 in cells. We defined 2's cellular binding site within pri-miR-96. […] After reverse transcription, ssDNA adaptors were ligated to the cDNA, followed by which was cloned into NEB's pminiT 2.0 vector and sequenced. Mirroring the predicted and validated (via nuclease mapping^14) binding site, 2's binding site was localized to nucleotides that are proximal to pri-miR-96's Drosha site (FIG. 4B). In particular, the most occupied binding site observed is a C residue four nucleotides upstream of the UU internal loop bound by 1 (54%; highlighted in red in FIG. 4). Two other reactions sites were observed: (i) a G residue in the GG internal loop that binds 1 (14%); and (ii) a U residue 13 nucleotides upstream of the UU internal loop that is part of the Drosha processing site (24%). To support our cellular mapping experiments, we modeled 2 bound to pri-miR-96 (FIG. 4B). Indeed, the distance between 2's cross-linking module and the most reacted nucleotides match precisely.

pri-miR-96 [5] = conditions: in vitro, cited from earlier work; for pulldown of pri-miR-96 adducts with streptavidin beads: radioactively labeled pri-miR-96 RNA
pri-miR-96 [6] = conditions: in cells, cited from earlier work

| SMILES | increase in pri-miR-96 abundance [1] | mature miR-96 levels [1] | FOXO1 protein expression (FOXO1 protein) | effect on all 15 miRNAs predicted to target the FOXO1 3' UTR [2] | selectivity profiling on 373 miRNAs (volcano plot) [3] | Caspase activity indicative of apoptosis (MDA-MB-231 TNBC cells) | Caspase activity indicative of apoptosis (MCF-10A cells) | sequences terminating at reaction site: C residue four nucleotides upstream of the UU internal loop (pri-miR-96 [4]) [%] | sequences terminating at reaction site: G residue in the GG internal loop (pri-miR-96 [4]) [%] | sequences terminating at reaction site: U residue 13 nucleotides upstream of the UU internal loop (Drosha processing site) (pri-miR-96 [4]) [%] | pulldown of pri-miR-96 adducts with streptavidin beads (pri-miR-96 [5]) | enrichment of pri-miRNA-96 in the pulled down fraction (pri-miR-96 [6]; compared to sample prior to incubation with streptavidin beads, RT-qPCR) [fold] | competition of pri-miR-96 pulldown by 2 (C-Chem-CLIP) (pri-miR-96 [5]; constant 2 (1000 nM), increasing amounts of 1) | competition of pri-miR-96 pulldown (cellular C-Chem-CLIP) (pri-miR-96 [6]; increasing concentration of 1) |
| --- | --- | --- | --- | --- | --- | --- | --- | --- | --- | --- | --- | --- | --- | --- |
| CCCN(CC(=O)N(CC(=O)N(CCNC(=O)CCCC[C@H]1SC[C@H]2NC(=O)N[C@H]21)CC(N)=O)Cc1cn(CCCNC(=O)CCCOc2c(C(C)(C)C)cc(-c3nc4cc(N5CCN(C)CC5)ccc4[nH]3)cc2C(C)(C)C)nn1)C(=O)CN(CCNC(=O)CCCc1ccc(N(CCCl)CCCl)cc1)C(=O)CCCOc1cccc(-c2nc3ccc(-c4nc5cc(N6CCN(C)CC6)ccc5[nH]4)cc3[nH]2)c1 [compound 2] | ca. 1.5 fold | reduced to a similar extent as the parent compound 1 | enhanced the expression of FOXO1 protein | Only miR-96 was inhibited significantly | miR-96 was the most affected | increased Caspase activity | neither 1 nor 2 had any effect | 54 | 14 | 24 | Specific engagement | 5 | – | – |
| CCCN(CC(=O)N(CCC)CC(=O)N(CC(N)=O)Cc1cn(CCCNC(=O)CCCOc2c(C(C)(C)C)cc(-c3nc4cc(N5CCN(C)CC5)ccc4[nH]3)cc2C(C)(C)C)nn1)C(=O)CCCOc1cccc(-c2nc3ccc(-c4nc5cc(N6CCN(C)CC6)ccc5[nH]4)cc3[nH]2)c1 [compound 1, Targaprimir-96] | ca. 1.5 fold | reduced | enhanced the expression of FOXO1 protein | Only miR-96 was inhibited significantly | – | increased Caspase activity | neither 1 nor 2 had any effect | – | – | – | – | – | 1-dependent decrease in the amount of RNA pulled down by 2 | decreased as a function of the concentration of 1 |
| C#CCN(CC(=O)N(CCNC(=O)CCCC[C@H]1SC[C@H]2NC(=O)N[C@H]21)CC(N)=O)C(=O)CN(CCC)C(=O)CN(CCNC(=O)CCCc1ccc(N(CCCl)CCCl)cc1)C(C)=O [compound 3] (Ac-[N(2-Aminoethyl)Gly](Chlorambucil)[NPrGly][Gly(N-propargyl)][N(2-Aminoethyl)Gly](Biotinyl(3aR,4R,6aS))-NH2) | – | No effect | – | – | – | no effect | – | – | – | – | no pulldown | – | – | – |
